Measurements as given in patent US4238507A, “Pharmacological compound with immunopotentiating activity and production and uses thereof” (Zaidan Hojin Biseibutsu Kagaku Kenkyu Kai, priority 1979, dated 1980).

Assays:
[1] = system: cellular immunity (cell-mediated immunity); assay: Delayed-Type Hypersensitivity (D.T.H.) footpad swelling, effect on cellular immunity in mice immunized with sheep red blood cells; type: in vivo, ddY mouse; details: for Degree of swelling: left hind footpad, 24 hours after elicitation
Procedure: In order to evaluate the immunopotentiating properties of the compound (I) of this invention, the effect of the compound (I) on cellular immunity (cell-mediated immunity) was tested according to a known Delayed-Type Hypersensitivity (D.T.H.) technique (see P. H. Lagrange, G. B. Mackaness and T. E. Mille, "J. Exp. Med", 139, 1529-1539 (1974)) using mice immunized with sheep red blood cells as antigen.
Thus, 10^8 sheep red blood cells (SRBC) suspended in 0.05 ml of physiological saline were subcutaneously injected at the time of immunization to the right hind footpad of each dd/.UPSILON. mouse under test (female, 6 weeks old) to establish delayed-type hypersensitivity. Simultaneously with the immunization, a varying dose of the compound (I) was intraperitoneally injected or orally administered into each test mouse. Four days later, 10^8 sheep red blood cells were subcutantaneously injected into the left hind footpad of each test mouse for elicitation of the D.T.H. response. 24 hours after the elicitating injection, the thickness of the left hind footpad was measured to evaluate the degree of the swelling in the footpad. The degree of the swelling serves to estimate the cellular immunity involved. In the Table, the swelling degree is expressed in terms of the values calculated by the equation: [formula]

[2] = acute toxicity (LD50), intraperitoneal injection in mice; details: mouse, in vivo, ip; intraperitoneally injected into mice
[3] = stability compared with forphenicine; type: physicochemical; details: relative to forphenicine
immune response = assay: immunopotentiating activity upon oral administration compared with forphenicine; type: in vivo; details: relative to forphenicine
alkaline phosphatase = details: literature; cited from earlier work

| Structure (SMILES) | Degree of swelling ([1]; i.p. injection, 0.1 μg/mouse) | Degree of swelling ([1]; i.p. injection, 1 μg/mouse) | Degree of swelling ([1]; i.p. injection, 10 μg/mouse) | Degree of swelling ([1]; i.p. injection, 100 μg/mouse) | potentiating effect on establishment of cellular immunity ([1]; intraperitoneal injection or oral administration, wide range of dosages) | Degree of swelling ([1]; oral administration, 0.1 μg/mouse) | Degree of swelling ([1]; oral administration, 1 μg/mouse) | Degree of swelling ([1]; oral administration, 10 μg/mouse) | Degree of swelling ([1]; oral administration, 100 μg/mouse) | LD50 [2] [mg/kg] | stability [3] | activity upon oral administration (immune response) | inhibition of alkaline phosphatase (alkaline phosphatase) |
| --- | --- | --- | --- | --- | --- | --- | --- | --- | --- | --- | --- | --- | --- |
| NC(C(=O)O)c1ccc(CO)c(O)c1 (stereo not shown) [compound (I), forphenicinol] | 183 | 159 | 148 | 131 | intensive potentiating effect | 139 | 133 | 191 | 166 | > 500 | more stable than forphenicine | higher activity than forphenicine | – |
| NC(C(=O)O)c1ccc(C=O)c(O)c1 (stereo not shown) [Forphenicine, forphenicine] | – | – | – | – | – | – | – | – | – | – | – | – | strong inhibitor of alkaline phosphatase |
